Converted amounts (≈) assume the structure as drawn. The source made the active and inactive calls. The rule behind the calls is not given here. Non-standard residues stand in square brackets, D forms with d. Residues, ends and D or L forms follow the SMILES beside them. ξ: configuration not given here. ξY = NC(Cc1ccc(O)cc1)C(=O)O; ξR = N=C(N)NCCCC(N)C(=O)O; ξN = NC(=O)CC(N)C(=O)O; ξI = CCC(C)C(N)C(=O)O; ξP = O=C(O)C1CCCN1
Key:
[1] = tested on: rRNA; experiment: Binding affinity to [gamma32 P-ATP] labeled Escherichia coli MG1655 23S ribosomal RNA (5-CCCTTGGGACCTACTTC-3') at U2506 position assessed as increase in band intensity at 1 uM incubated for 2.5 hrs in full muller hinton medium by CMCT based gel electrophoresis; format: nucleic-acid assay
[2] = tested on: Klebsiella pneumoniae; experiment: Bacteriostatic activity against Klebsiella pneumoniae at 8 times MIC in full muller hinton medium by Time-kill assay; format: functional, organism-based
[3] = tested on: Escherichia coli; experiment: Bacteriostatic activity against Escherichia coli assessed as membrane perturbation at 8 times MIC in full muller hinton medium by transmission electron microscopic analysis; format: functional, organism-based
[4] = tested on: Lipid bilayer; experiment: Induction of membrane disruption in egg yolk phosphatidyl glycerol at 10 ug/ml by measuring vesicle leakage; conditions: dose 10.0 µg/ml
[5] = tested on: Pseudomonas aeruginosa; experiment: Antibacterial activity against multidrug-resistant Pseudomonas aeruginosa PA14 2P4 harboring pmrB mutant incubated for 16 to 20 hrs in full muller hinton medium by broth microdilution method; format: functional; conditions: time 16-20 hrs
[6] = tested on: Pseudomonas aeruginosa; experiment: Antibacterial activity against multidrug-resistant Pseudomonas aeruginosa clinical isolate ZEM9A incubated for 16 to 20 hrs in full muller hinton medium by broth microdilution method; format: functional; conditions: time 16-20 hrs
[7] = tested on: Staphylococcus aureus; experiment: Antimicrobial activity against methicillin-resistant Staphylococcus aureus COL incubated for 16 to 20 hrs in 12.5 % muller hinton medium by broth microdilution method; format: functional; conditions: time 16-20 hrs
[8] = tested on: Escherichia coli; experiment: Bacteriostatic activity against Escherichia coli at 8 times MIC in full muller hinton medium by Time-kill assay; format: functional, organism-based
[9] = tested on: Pseudomonas aeruginosa; experiment: Antibacterial activity against multidrug-resistant Pseudomonas aeruginosa PA14 incubated for 16 to 20 hrs in full muller hinton medium by broth microdilution method; format: functional; conditions: time 16-20 hrs
[10] = tested on: Klebsiella pneumoniae; experiment: Bacteriostatic activity against Klebsiella pneumoniae assessed as small intracellular vesicles at 8 times MIC in full muller hinton medium by transmission electron microscopic analysis; format: functional, organism-based
[11] = Hemolytic activity in human RBC incubated for 4 hrs; format: toxicity, cell-based; conditions: erythrocyte
[12] = tested on: Escherichia coli; experiment: Bacteriostatic activity against Escherichia coli assessed as detachment of inner membrane from outer membrane by measuring a large void at 8 times MIC in full muller hinton medium by transmission electron microscopic analysis; format: functional, organism-based
[13] = tested on: Pseudomonas aeruginosa; experiment: Antimicrobial activity against Pseudomonas aeruginosa PAO1 incubated for 16 to 20 hrs in 12.5 % muller hinton medium by broth microdilution method; format: functional; conditions: time 16-20 hrs
[14] = tested on: Escherichia coli; experiment: Bacteriostatic activity against Escherichia coli assessed as small intracellular vesicles at 8 times MIC in full muller hinton medium by transmission electron microscopic analysis; format: functional, organism-based
[15] = tested on: Escherichia coli; experiment: Antimicrobial activity against Escherichia coli W3110 incubated for 16 to 20 hrs in full muller hinton medium by broth microdilution method; format: functional; conditions: time 16-20 hrs
[16] = tested on: Klebsiella pneumoniae; experiment: Bacteriostatic activity against Klebsiella pneumoniae assessed as detachment of inner membrane from outer membrane by measuring a large void at 8 times MIC in full muller hinton medium by transmission electron microscopic analysis; format: functional, organism-based
[17] = tested on: Enterobacter cloacae; experiment: Antibacterial activity against multidrug-resistant Enterobacter cloacae incubated for 16 to 20 hrs in 12.5 % muller hinton medium by broth microdilution method; format: functional; conditions: time 16-20 hrs
[18] = tested on: Lipid bilayer; experiment: Induction of membrane disruption in egg yolk phosphatidyl choline at 10 ug/ml by measuring vesicle leakage; conditions: dose 10.0 µg/ml
[19] = tested on: Klebsiella pneumoniae; experiment: Bacteriostatic activity against Klebsiella pneumoniae assessed as membrane perturbation at 8 times MIC in full muller hinton medium by transmission electron microscopic analysis; format: functional, organism-based
[20] = tested on: Staphylococcus aureus; experiment: Antimicrobial activity against methicillin-resistant Staphylococcus aureus COL incubated for 16 to 20 hrs in full muller hinton medium by broth microdilution method; format: functional; conditions: time 16-20 hrs
[21] = tested on: Enterobacter cloacae; experiment: Antibacterial activity against multidrug-resistant Enterobacter cloacae incubated for 16 to 20 hrs in full muller hinton medium by broth microdilution method; format: functional; conditions: time 16-20 hrs

| SMILES | Activity [1] | Activity [2] | Activity [3] | Activity [4] | MIC [5] [µg/mL] | MIC [6] [µg/mL] | MIC [7] [µg/mL] | Activity [8] | MIC [9] [µg/mL] | Activity [10] | MHC [11] [µg/mL] | Activity [12] | Activity [14] | Activity [16] | MIC [17] [µg/mL] | Activity [18] | Activity [19] | MIC [20] [µg/mL] | further results |
| --- | --- | --- | --- | --- | --- | --- | --- | --- | --- | --- | --- | --- | --- | --- | --- | --- | --- | --- | --- |
| CCC(C)C(NC(=O)C(CCCNC(=N)N)NC(=O)[C@H](CCCNC(=N)N)NC(=O)[C@@H]1CCCN1C(=O)[C@@H]1CCCN1C(=O)[C@H](CCCNC(=N)N)NC(=O)[C@@H]1CCCN1C(=O)[C@H](CCCNC(=N)N)NC(=O)[C@@H]1CCCN1C(=O)[C@H](CC(C)C)NC(=O)[C@H](Cc1ccc(O)cc1)NC(=O)[C@@H]1CCCN1C(=O)[C@@H]1CCCN1C(=O)[C@H](CCCCN)NC(=O)[C@H](CC(=O)O)NC(=O)[C@@H](N)C(C)C)C(=O)NC(Cc1ccc(O)cc1)C(=O)NC(CC(N)=O)C(=O)NC(CCCNC(=N)N)C(N)=O (stereo not given in full) (H-VDKPPYLPRPRPPR[ξR][ξI][ξY][ξN][ξR]-NH2) | Active | Active | Active; Few Membrane Perturbation Observed | Active | > 64 | > 64 | > 16 | Active | > 64 | Active | > 1000 | Active | Active | Active | 1 (≈ 0.418 µM) | Active | Active; Few Membrane Perturbation Observed | > 64 | MIC [13]: 8 µg/mL (≈ 3.35 µM); MIC [15]: 4 µg/mL (≈ 1.67 µM) |
| CCC(C)C(NC(=O)C(CCCNC(=N)N)NC(=O)C(CCCNC(=N)N)NC(=O)C1CCCN1C(=O)C1CCCN1C(=O)[C@H](CCCNC(=N)N)NC(=O)[C@@H]1CCCN1C(=O)[C@H](CCCNC(=N)N)NC(=O)[C@@H]1CCCN1C(=O)[C@H](CC(C)C)NC(=O)[C@H](Cc1ccc(O)cc1)NC(=O)[C@@H]1CCCN1C(=O)[C@@H]1CCCN1C(=O)[C@H](CCCCN)NC(=O)[C@H](CC(=O)O)NC(=O)[C@@H](N)C(C)C)C(=O)NC(Cc1ccc(O)cc1)C(=O)NC(CC(N)=O)C(=O)NC(CCCNC(=N)N)C(N)=O (stereo not given in full) (H-VDKPPYLPRPR[ξP][ξP][ξR][ξR][ξI][ξY][ξN][ξR]-NH2) | Active | Active | Active; Few Membrane Perturbation Observed | Active | > 64 | > 64 | > 16 | Active | > 64 | Active | > 1000 | Active | Active | Active | 0.5 (≈ 0.209 µM) | Active | Active; Few Membrane Perturbation Observed | > 64 | MIC [21]: > 64 µg/mL |
| CCC(C)C(NC(=O)C(CCCNC(=N)N)NC(=O)C(CCCNC(=N)N)NC(=O)C1CCCN1C(=O)C1CCCN1C(=O)C(CCCNC(=N)N)NC(=O)[C@@H]1CCCN1C(=O)[C@H](CCCNC(=N)N)NC(=O)[C@@H]1CCCN1C(=O)[C@H](CC(C)C)NC(=O)[C@H](Cc1ccc(O)cc1)NC(=O)[C@@H]1CCCN1C(=O)[C@@H]1CCCN1C(=O)[C@H](CCCCN)NC(=O)[C@H](CC(=O)O)NC(=O)[C@@H](N)C(C)C)C(=O)NC(Cc1ccc(O)cc1)C(=O)NC(CC(N)=O)C(=O)NC(CCCNC(=N)N)C(N)=O (stereo not given in full) (H-VDKPPYLPRP[ξR][ξP][ξP][ξR][ξR][ξI][ξY][ξN][ξR]-NH2) | Active | Active | Active; Few Membrane Perturbation Observed | Active | > 64 | > 64 | – | Active | > 64 | Active | > 1000 | Active | Active | Active | – | Active | Active; Few Membrane Perturbation Observed | > 64 | – |

Source: ChEMBL document CHEMBL6083262, “Stereorandomized Oncocins with Preserved Ribosome Binding and Antibacterial Activity” (J Med Chem, 2024)
